Counter-ions that a name gives are not always drawn.

One series is described as follows: Interaction of perfume components with cyclodextrin (CD). As to conditions: perfume component with cyclodextrin. It is filed as physicochemical. The text has this:
The following table illustrates the molecular weight property of some of the preferred perfume versus non-preferred perfume components.
Examples of Perfume Components for CD Interaction
On to `CC(C=O)Cc1ccc(C(C)C)cc1` (centres unmarked) [Cymal], for which the CD interaction result was “strong”. Take `CCOC(=O)c1ccccc1C(=O)OCC` [Diethyl Phthalate]: the CD interaction entry is reported as “weak”. `CC(=O)OC1CC2CC1C1CC=CC21` (centres unmarked) [Flor Acetate]: the CD interaction entry is on record as “strong”. In the case of `CCC(=O)OC1CC2CC1C1CC=CC21` (centres unmarked) [Frutene], the CD interaction entry is listed as “strong”. Turning to `CC1COCc2cc3c(cc21)C(C)(C)C(C)C3(C)C` (centres unmarked) [Galaxolide], the CD interaction entry is reported as “weak”. Same read-out and setting: for `CCCCCCOC(=O)c1ccccc1O` [Hexyl Salicylate] the value was “weak”; for `CCCCCCC(C=O)=Cc1ccccc1` [Hexyl cinnamic Aldehyde], “weak”; for `CC(=O)C1(C)CC2=C(CCCC2(C)C)CC1C` (centres unmarked) [Iso-E Super], “weak”.

Consider `CCCCCCCCCCCCCC(=O)OC(C)C` [Iso-propyl Myristate], for which the CD interaction entry is listed as “weak”. Turning to `CC(=O)C(C)=C(C)C(C)C(C)(C)C` (centres unmarked) [Koavone], the CD interaction result was “strong”. Regarding `CC(C=O)Cc1ccc(C(C)(C)C)cc1` (centres unmarked) [Lilial, Lilial (p-t-bucinal)], the CD interaction result is given as “strong”.

For the compound `CC(C)(O)CCCC1=CCC(C=O)CC1` (centres unmarked) [Lyral], the CD interaction result was “weak”. On the same count and under the same terms, the same measure for `CCCCCC1C(=O)CCC1CC(=O)OC` (centres unmarked) [Methyl Dihydro Jasmonate]: “weak”; for `O=C(Cc1ccccc1)OCCc1ccccc1` [Phenyl-Ethyl-Phenyl Acetate]: “weak”; for `CC(=O)OC(C)(C)C1CC=C(C)CC1` (centres unmarked) [Terpinyl Acetate]: “significant”. For `CC(=O)OC1CCC(C(C)(C)C)CC1` (centres unmarked) [Vertenex, para-tert-butylcyclohexyl acetate], the CD interaction result was “strong”. `CC(=O)/C=C/C1C(C)=CCCC1(C)C` (centres unmarked) [a-ionone]: the CD interaction result was “strong”. Same read-out and setting: for a-Me Ionone the value was “strong”.

The nature of another series: Elevation in surface tension of surfactant solution in the presence of cyclodextrin. As to conditions: in the presence of a typical cyclodextrin (about 1% solution). It is filed as physicochemical. The text has this: Suitable cyclodextrin-compatible surfactants can be readily identified by the absence of effect of cyclodextrin on the surface tension provided by the surfactant. This is achieved by determining the surface tension (in dyne/cm) of aqueous solutions of the surfactant in the presence and in the absence of about 1% of a specific cyclodextrin in the solutions. The aqueous solutions contain surfactant at concentrations of approximately 0.5%, 0.1%, 0.01%, and 0.005%. The cyclodextrin can affect the surface activity of a surfactant by elevating the surface tension of the surfactant solution. If the surface tension at a given concentration in water differs by more than about 10% from the surface tension of the same surfactant in the 1% solution of the cyclodextrin, that is an indication of a strong interaction between the surfactant and the cyclodextrin. The preferred surfactants herein should have a surface tension in an aqueous solution that is different (lower) by less than about 10%, preferably less than about 5%, and more preferably less than about 1% from that of the same concentration solution containing 1% cyclodextrin.
The cyclodextrin-compatible surfactants described above are either weakly interactive with cyclodextrin (less than 5% elevation in surface tension), or non-interactive (less than 1% elevation in surface tension).
For the compound `CCCCCCCCCCCCOS(=O)(=O)[O-].[Na+]` [sodium dodecyl sulfate], the “elevation in surface tension” value is given as greater than 10%. dodecanolpoly(6)ethoxylate: the “elevation in surface tension” value is reported as greater than 10%.

Assay in a further series: not given
As to conditions: cited from earlier work.
`Cn1sc2c(c1=O)CCC2` [Promexal, 2-methyl-4,5-trimethylene-4-isothiazolin-3-one]: the “stability over a wide pH range” value is listed as 4-12. As for `O=c1[nH]sc2ccccc12` [Proxel, 1,2-benzisothiazolin-3-one], the “stability over a wide pH range” value is recorded as 4-12.

Assay in another series: not given
The conditions noted are these: in water; cited from earlier work.
Regarding `OCCOc1ccccc1` [2-phenoxyethanol], the solubility in water entry is on record as “about 2.67%”. Take `OCCc1ccccc1` [2-phenylethanol]: the solubility in water entry is “about 2%”. Regarding `O=[N+]([O-])C1(Br)COCOC1` [Bronidox L, 5-bromo-5-nitro-1,3-dioxane], the solubility in water result was “about 0.46%”. On to `CC1(C)C(=O)N(CO)C(=O)N1CO` [DMDM hydantoin, 1,3-bis(hydroxymethyl)-5,5-dimethyl-2,4-imidazolidinedione], for which the solubility in water result is recorded as “more than 50%”.

`OCc1ccccc1` [benzyl alcohol]: the solubility in water entry is “about 4%”. As for `CC(C)(O)C(Cl)(Cl)Cl` [chlorobutanol, 1,1,1-Trichloro-2-methylpropan-2-ol], the solubility in water result is given as “about 0.8%”. Take `[H]/N=C(\N/C(=N/[H])NCCCCCCNC(=N)NC(=N)Nc1ccc(Cl)cc1)Nc1ccc(Cl)cc1` [diacetate salt, 1,1'-hexamethylene bis(5-(p-chlorophenyl)biguanide), reference compound]: the solubility in water result is “about 1.8%”. `[H]/N=C(\N/C(=N/[H])NCCCCCCNC(=N)NC(=N)Nc1ccc(Cl)cc1)Nc1ccc(Cl)cc1` [digluconate salt, 1,1'-hexamethylene bis(5-(p-chlorophenyl)biguanide), reference compound]: the solubility in water entry is recorded as “about 70%”. For `[Na+].[O-][n+]1ccccc1[S-]` [sodium pyrithione], the solubility in water entry is reported as “about 50%”.

The series is the same for the next values; noted with them: result in words; cited from earlier work.
Consider `ClC=CC[N+]12CN3CN(CN(C3)C1)C2.[Cl-]` [Dowicil 200, 1-(3-Chlorallyl) -3,5,7-triaza-1-azoniaadamantane chloride], for which the solubility in water entry is “freely soluble in water”.

Source of the values: patent publication EP1212395B1, “IMPROVED METHODS, COMPOSITIONS, AND ARTICLES FOR ODOR CONTROL” (THE PROCTER & GAMBLE COMPANY, priority 1999, dated 2001).
